The source of these data is PubChem BioAssay (NCI).

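Protocol summary: plate cells (96-well), add compound at 5 concentrations, incubate 48 h, interpolate endpoints linearly. At the GI50, growth is halved. Definition used: TGI = concentration required for complete inhibition of growth.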

One experiment has as its system SK-MEL-5 melanoma. Nature of the experiment: inhibition of tumour cell growth, NCI panel, 48 h.
As to `CCC1(CC)C(=O)NN(C(=O)c2ccccc2)C1=O`, the TGI is > 100 µM.

As to `CC(=O)Nc1nc(C#N)[nH]c1C#N`, the TGI was > 100 µM.

As for `CS(=O)c1ncc2c(n1)-c1ccccc1OC2` (configuration not stated), the TGI is > 100 µM.

In turn, `CN(C)c1ccc(C(=N/N=C2\C(=O)Nc3ccccc32)c2ccc(N(C)C)cc2)cc1` gave a TGI of 13.9 µM.

In the case of `CCCC(=O)OC1CC(n2cc(F)c(=O)[nH]c2=O)OC1COP(=O)(OCC(Cl)(Cl)Cl)OCC(Cl)(Cl)Cl` (configuration not stated), the TGI was > 100 µM.

`CC1=C[C@@H]2Cc3nc4cc(Cl)ccc4c(N)c3[C@H](C1)C2` had a TGI of 11.2 µM.

`O=[N+]([O-])C(/C=C(\Cl)n1nnc2ccccc21)=C(/Cl)n1nnc2ccccc21`: the TGI is > 100 µM.

Take `CSC(=S)N(C)C`: the TGI was > 100 µM.

For the molecule `COc1ccc2c(C)cc(=O)oc2c1OC`, the TGI is > 100 µM.

Turning to `CN(C)c1ccc(S(=O)Nc2ccccc2)cc1` (configuration not stated), the TGI was 50.7 µM.

The molecule `C=CCSc1nnc2cc(CN3CCCC3)c(-c3ccc(Cl)cc3)nn12` returned a TGI of 31.1 µM.

`Cc1cn(C2CC(O)C(CO)O2)c(=O)[nH]c1=O` (configuration not stated): the TGI is > 5000 µM.

As for `CCNC(=O)Cc1nc2c(N)ncnc2n1C1OC(CO)C(O)C1O` (configuration not stated), the TGI was > 100 µM.

On to `N#CC12C(=O)N=C(N)C1(C#N)C(c1ccco1)NC1=C2CCCC1` (configuration not stated), for which the TGI is > 100 µM.

Consider `CCN(CC)CCN(C(=Nc1ccccc1)N1CCOCC1)c1ccccc1`, for which the TGI was > 100 µM.

The test system of a further experiment is LOX IMVI melanoma. Nature of the experiment: inhibition of tumour cell growth, NCI panel, 48 h.
Turning to `CC1(C)CCCC2OC2CCC(C)(C)C1=O` (configuration not stated), the TGI was > 100 µM.

Consider `O=C1NCC2(CCN(CCCC3(c4ccc(F)cc4)OCCO3)CC2)N1c1ccccc1`, for which the TGI was > 100 µM.

In the case of `COc1ccc2c(c1)/C(=C\c1c(Cl)nc3sc(C)cn13)C(=O)N2`, the TGI was 18.1 µM.

In the case of `O=C1c2ccccc2-c2c1c(-c1ccc(F)cc1)nc1ccc3ccccc3c21`, the TGI is > 100 µM.

With `O=C(/C=C/c1ccc2c(c1)OCO2)CC(=O)C(=O)c1c[nH]c2ccccc12`, the TGI was > 100 µM.

On to `O=C(Nc1nccs1)c1c(O)nc2sccn2c1=O`, for which the TGI is > 10 µM.

Take `O=c1[nH]c(=O)n(C2OC(CO)C(O)C2O)c2nc(-c3ccc(-c4ccccc4)cc3)cnc12` (configuration not stated): the TGI was > 100 µM.

With `O=C1NCCN1/N=C/c1c(Cl)n(-c2ccccc2)c2ccccc12`, the TGI is 38.9 µM.

`N=C(N)SCc1ccc2c(c1)Sc1ccccc1O2` gave a TGI of 60.4 µM.

`CO[C@H]1/C=C(/C)CCC[C@H](C)[C@H](O)[C@@H](C)C(=O)C(C)(C)[C@@H](O)CC(=O)O[C@@H]1/C(C)=C/c1csc(C)n1`: the GI50 was 0.0162 µM and the TGI was > 100 µM.

For `CCC1(CC)C(=O)NN(C(=O)c2ccccc2)C1=O`, the TGI was > 100 µM.

For `CC(=O)Nc1nc(C#N)[nH]c1C#N`, the TGI is > 100 µM.

`CS(=O)c1ncc2c(n1)-c1ccccc1OC2` (configuration not stated): the TGI was > 100 µM.

Take `CN(C)c1ccc(C(=N/N=C2\C(=O)Nc3ccccc32)c2ccc(N(C)C)cc2)cc1`: the TGI is 28.7 µM.

With `CCCC(=O)OC1CC(n2cc(F)c(=O)[nH]c2=O)OC1COP(=O)(OCC(Cl)(Cl)Cl)OCC(Cl)(Cl)Cl` (configuration not stated), the TGI was > 69.6 µM.

With `CC1=C[C@@H]2Cc3nc4cc(Cl)ccc4c(N)c3[C@H](C1)C2`, the TGI is 22.3 µM.

As for `O=[N+]([O-])C(/C=C(\Cl)n1nnc2ccccc21)=C(/Cl)n1nnc2ccccc21`, the TGI was > 100 µM.

As to `CSC(=S)N(C)C`, the TGI was > 100 µM.

`COc1ccc2c(C)cc(=O)oc2c1OC`: the TGI is > 100 µM.

With `CN(C)c1ccc(S(=O)Nc2ccccc2)cc1` (configuration not stated), the TGI is > 100 µM.

Take `C=CCSc1nnc2cc(CN3CCCC3)c(-c3ccc(Cl)cc3)nn12`: the TGI amounted to 48.1 µM.

For the molecule `Cc1cn(C2CC(O)C(CO)O2)c(=O)[nH]c1=O` (configuration not stated), the TGI was > 5000 µM.

On to `CSC(=S)N/N=C(\C)c1ccc(S(=O)(=O)N(C)c2ccccc2)cc1`, for which the TGI is > 100 µM.

Turning to `CCNC(=O)Cc1nc2c(N)ncnc2n1C1OC(CO)C(O)C1O` (configuration not stated), the TGI was > 100 µM.

In the case of `Cc1nc(N)c(N2CCN([N+](=O)[O-])CC2)c(=O)[nH]1`, the TGI is > 100 µM.

For `N#CC12C(=O)N=C(N)C1(C#N)C(c1ccco1)NC1=C2CCCC1` (configuration not stated), the TGI is > 100 µM.

Turning to `CCN(CC)CCN(C(=Nc1ccccc1)N1CCOCC1)c1ccccc1`, the TGI is > 100 µM.

For the next experiment, the system named is SK-MEL-28 melanoma. Description: inhibition of tumour cell growth, NCI panel, 48 h.
Turning to `CC1(C)CCCC2OC2CCC(C)(C)C1=O` (configuration not stated), the TGI was > 100 µM.

For `O=C1NCC2(CCN(CCCC3(c4ccc(F)cc4)OCCO3)CC2)N1c1ccccc1`, the TGI was > 100 µM.

In the case of `COc1ccc2c(c1)/C(=C\c1c(Cl)nc3sc(C)cn13)C(=O)N2`, the TGI came to 25.5 µM.

`O=C1c2ccccc2-c2c1c(-c1ccc(F)cc1)nc1ccc3ccccc3c21`: the TGI was > 100 µM.

As to `O=C(/C=C/c1ccc2c(c1)OCO2)CC(=O)C(=O)c1c[nH]c2ccccc12`, the TGI was > 100 µM.

Turning to `O=C(Nc1nccs1)c1c(O)nc2sccn2c1=O`, the TGI is > 10 µM.

On to `N=C(N)SCc1ccc2c(c1)Sc1ccccc1O2`, for which the TGI was 38.7 µM.

Regarding `CO[C@H]1/C=C(/C)CCC[C@H](C)[C@H](O)[C@@H](C)C(=O)C(C)(C)[C@@H](O)CC(=O)O[C@@H]1/C(C)=C/c1csc(C)n1`, the GI50 was 0.0445 µM and the TGI was > 100 µM.

Take `CCC1(CC)C(=O)NN(C(=O)c2ccccc2)C1=O`: the TGI is > 100 µM.

For the molecule `CC(=O)Nc1nc(C#N)[nH]c1C#N`, the TGI was > 100 µM.

As for `CS(=O)c1ncc2c(n1)-c1ccccc1OC2` (configuration not stated), the TGI was > 100 µM.

Take `CN(C)c1ccc(C(=N/N=C2\C(=O)Nc3ccccc32)c2ccc(N(C)C)cc2)cc1`: the TGI was > 57.2 µM.

`CCCC(=O)OC1CC(n2cc(F)c(=O)[nH]c2=O)OC1COP(=O)(OCC(Cl)(Cl)Cl)OCC(Cl)(Cl)Cl` (configuration not stated): the TGI is > 62.4 µM.

In the case of `CC1=C[C@@H]2Cc3nc4cc(Cl)ccc4c(N)c3[C@H](C1)C2`, the TGI came out at 25.1 µM.

Regarding `O=[N+]([O-])C(/C=C(\Cl)n1nnc2ccccc21)=C(/Cl)n1nnc2ccccc21`, the TGI was > 100 µM.

Turning to `CSC(=S)N(C)C`, the TGI is > 100 µM.

Regarding `COc1ccc2c(C)cc(=O)oc2c1OC`, the TGI was > 100 µM.

Take `CN(C)c1ccc(S(=O)Nc2ccccc2)cc1` (configuration not stated): the TGI is > 100 µM.

In the case of `C=CCSc1nnc2cc(CN3CCCC3)c(-c3ccc(Cl)cc3)nn12`, the TGI came to 47.8 µM.

`Cc1cn(C2CC(O)C(CO)O2)c(=O)[nH]c1=O` (configuration not stated): the TGI was > 5000 µM.

For `CSC(=S)N/N=C(\C)c1ccc(S(=O)(=O)N(C)c2ccccc2)cc1`, the TGI is > 100 µM.

Consider `CCNC(=O)Cc1nc2c(N)ncnc2n1C1OC(CO)C(O)C1O` (configuration not stated), for which the TGI was > 100 µM.

Consider `Cc1nc(N)c(N2CCN([N+](=O)[O-])CC2)c(=O)[nH]1`, for which the TGI was > 100 µM.
